Source: ChEMBL document CHEMBL4376839, “Structure-Based Optimization of Coumarin hA3 Adenosine Receptor Antagonists” (J Med Chem, 2020)

Columns and labels:
Adenosine receptor A1 = target: T1, Adenosine receptor A1 (Homo sapiens, UniProt P30542); test: Displacement of [3H]CCPA from human adenosine receptor A1 expressed in CHO cell membranes by radioligand competition assay
T1 sequence (P30542 whole entry): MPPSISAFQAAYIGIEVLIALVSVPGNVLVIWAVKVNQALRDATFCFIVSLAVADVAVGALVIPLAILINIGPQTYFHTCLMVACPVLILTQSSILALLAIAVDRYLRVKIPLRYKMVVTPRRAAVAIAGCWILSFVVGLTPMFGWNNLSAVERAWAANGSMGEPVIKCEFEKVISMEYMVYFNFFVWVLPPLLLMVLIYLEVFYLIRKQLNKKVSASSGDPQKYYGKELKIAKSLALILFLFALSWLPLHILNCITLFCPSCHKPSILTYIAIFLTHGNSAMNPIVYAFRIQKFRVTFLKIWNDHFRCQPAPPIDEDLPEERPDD

Adenosine receptor A3 [1] = target: T2, Adenosine receptor A3 (Homo sapiens, UniProt P0DMS8); test: Displacement of [3H]HEMADO from human adenosine receptor A3 expressed in CHO cell membranes by radioligand competition assay
T2 sequence (P0DMS8 whole entry): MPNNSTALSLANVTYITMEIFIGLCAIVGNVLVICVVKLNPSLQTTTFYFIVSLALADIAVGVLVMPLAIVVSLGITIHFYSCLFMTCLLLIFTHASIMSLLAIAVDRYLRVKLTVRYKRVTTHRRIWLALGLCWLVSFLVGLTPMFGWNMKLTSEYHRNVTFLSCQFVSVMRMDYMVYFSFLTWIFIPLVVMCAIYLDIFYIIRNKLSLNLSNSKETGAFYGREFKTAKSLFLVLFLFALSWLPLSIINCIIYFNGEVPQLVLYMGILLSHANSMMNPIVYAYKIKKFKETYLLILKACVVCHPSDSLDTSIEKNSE

Adenosine receptor A2b [2] = target: T3, Adenosine receptor A2b (Homo sapiens, UniProt P29275); test: Antagonist activity at human adenosine receptor A2B expressed in CHO cells assessed as inhibition of NECA-stimulated adenylyl cyclase activity
T3 sequence (P29275 whole entry): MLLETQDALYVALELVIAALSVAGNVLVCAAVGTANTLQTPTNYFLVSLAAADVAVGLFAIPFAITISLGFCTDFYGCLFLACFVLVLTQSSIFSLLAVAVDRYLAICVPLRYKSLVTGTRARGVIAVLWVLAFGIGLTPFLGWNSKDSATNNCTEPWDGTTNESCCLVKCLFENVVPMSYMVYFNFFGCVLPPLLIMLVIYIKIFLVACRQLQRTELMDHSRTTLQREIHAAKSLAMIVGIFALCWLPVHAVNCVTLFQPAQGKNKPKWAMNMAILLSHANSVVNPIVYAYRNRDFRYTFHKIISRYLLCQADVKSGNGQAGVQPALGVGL

Adenosine receptor A2a = Adenosine receptor A2a (Homo sapiens, UniProt P29274); test: Displacement of [3H]NECA from human adenosine receptor A2A expressed in CHO cell membranes by radioligand competition assay
Adenosine receptor A2b [3] = target: T3, Adenosine receptor A2b; test: Antagonist activity at human adenosine receptor A2B expressed in CHO cells assessed as inhibition of NECA-stimulated adenylyl cyclase activity; remark: listed apart in the source
Adenosine receptor A3 [4] = target: T2, Adenosine receptor A3; test: Antagonist activity at human adenosine receptor A3 expressed in CHO cells assessed as suppression of NECA-induced decrease of cAMP accumulation by Glo-sensor cAMP assay; type: functional, cell-based

Chain of Adenosine receptor A2a (P29274 whole entry): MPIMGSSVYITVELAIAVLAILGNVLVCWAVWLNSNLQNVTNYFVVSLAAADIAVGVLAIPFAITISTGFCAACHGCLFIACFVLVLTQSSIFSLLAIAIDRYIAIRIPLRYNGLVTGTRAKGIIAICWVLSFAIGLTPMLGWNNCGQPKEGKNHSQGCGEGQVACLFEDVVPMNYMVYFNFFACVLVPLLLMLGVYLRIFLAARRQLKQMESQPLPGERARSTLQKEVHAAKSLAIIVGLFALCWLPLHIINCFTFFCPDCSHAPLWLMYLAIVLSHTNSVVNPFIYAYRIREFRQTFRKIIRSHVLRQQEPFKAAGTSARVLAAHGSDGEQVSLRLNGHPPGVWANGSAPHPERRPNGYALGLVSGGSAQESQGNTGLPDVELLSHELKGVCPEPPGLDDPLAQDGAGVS

| SMILES | Ki (Adenosine receptor A1) | Ki (Adenosine receptor A3 [1]) | Ki (Adenosine receptor A2b [2]) | Ki (Adenosine receptor A2a) | IC50 (Adenosine receptor A2b [3]) | IC50 (Adenosine receptor A3 [4]) |
| --- | --- | --- | --- | --- | --- | --- |
| CC(=O)COc1cccc2cc(-c3ccccc3)c(=O)oc12 | 10.4 µM | 7.06 µM | > 30 µM | 16.1 µM | – | – |
| O=c1oc2c(O)c(O)ccc2cc1-c1ccc(O)cc1 | 12.5 µM | 9.16 µM | > 30 µM | 55.3 µM | > 30 µM | – |
| O=c1oc2c(O)cccc2cc1-c1ccccc1 | 4.62 µM | 5.09 µM | > 30 µM | 42.3 µM | > 30 µM | – |
| Cc1cccc2cc(-c3cc(O)c(O)c(O)c3)c(=O)oc12 | 14.7 µM | 14.3 µM | > 30 µM | > 100 µM | > 30 µM | – |
| CCOc1cccc2cc(-c3ccccc3)c(=O)oc12 | 22.1 µM | 22.5 µM | > 30 µM | 55 µM | > 30 µM | – |
| CCOc1cccc2cc(-c3ccc(Br)cc3)c(=O)oc12 | > 100 µM | > 100 µM | > 30 µM | > 100 µM | > 30 µM | – |
| Cc1cccc2cc(-c3ccc([N+](=O)[O-])cc3)c(=O)oc12 | > 100 µM | > 100 µM | > 30 µM | > 100 µM | > 30 µM | – |
| CCOc1cccc2cc(-c3ccc(C)cc3)c(=O)oc12 | > 100 µM | 3.93 µM | > 30 µM | > 60 µM | > 30 µM | 18.4 µM |
| CC(=O)COc1cccc2cc(-c3ccc(Br)cc3)c(=O)oc12 | > 100 µM | > 30 µM | > 30 µM | > 100 µM | – | – |
| CC(=O)COc1cccc2cc(-c3ccc(C)cc3)c(=O)oc12 | > 100 µM | 0.634 µM | > 30 µM | > 100 µM | – | – |
| Cc1ccc(-c2cc3cccc(C)c3oc2=O)cc1 | > 100 µM | 16.6 µM | > 30 µM | > 100 µM | > 30 µM | – |
| CC(=O)Oc1cccc2cc(-c3ccccc3)c(=O)oc12 | 6.93 µM | 6.86 µM | > 30 µM | 35.7 µM | > 30 µM | – |
| CCOc1cccc2cc(-c3ccc(OC)cc3OC)c(=O)oc12 | > 100 µM | 16.6 µM | > 30 µM | > 100 µM | > 30 µM | – |
| CC(=O)Oc1ccc(-c2cc3ccc(OC(C)=O)c(OC(C)=O)c3oc2=O)cc1OC(C)=O | > 100 µM | 23.4 µM | > 30 µM | > 100 µM | > 30 µM | – |
| Cc1cccc2cc(-c3ccccc3)c(=O)oc12 | 14.8 µM | 17 µM | > 30 µM | 42.1 µM | > 30 µM | – |
| CCOc1cccc2cc(-c3cc(OC)c(OC)c(OC)c3)c(=O)oc12 | > 100 µM | 9.05 µM | > 30 µM | > 100 µM | > 30 µM | – |
| COc1cccc2cc(-c3ccc([N+](=O)[O-])cc3)c(=O)oc12 | > 100 µM | 8.02 µM | > 30 µM | 59.1 µM | > 30 µM | – |
| COc1ccc(-c2cc3cccc(OC)c3oc2=O)cc1 | > 100 µM | 5.06 µM | > 30 µM | > 100 µM | > 30 µM | 25.3 µM |
| O=c1oc2c(O)cccc2cc1-c1ccc(Br)cc1 | > 100 µM | – | > 30 µM | > 100 µM | > 30 µM | – |
| CCOc1cccc2cc(-c3ccc(OC)c(OC)c3)c(=O)oc12 | > 100 µM | 13.7 µM | > 30 µM | > 100 µM | > 30 µM | – |
| CC(=O)Oc1ccc2cc(-c3ccccc3)c(=O)oc2c1OC(C)=O | 8.56 µM | 5.17 µM | > 30 µM | 21.1 µM | > 30 µM | – |
| O=c1oc2c(O)c(O)ccc2cc1-c1ccc(O)c(O)c1 | 6.28 µM | 8.5 µM | > 30 µM | 25.5 µM | > 30 µM | – |
| CCOc1cccc2cc(-c3ccc(OC)cc3)c(=O)oc12 | > 100 µM | 5.32 µM | > 30 µM | > 100 µM | > 30 µM | 29.5 µM |
| CCOc1cccc2cc(-c3ccc([N+](=O)[O-])cc3)c(=O)oc12 | > 100 µM | > 100 µM | > 30 µM | > 100 µM | > 30 µM | – |
| CC(=O)Oc1ccc(-c2cc3ccc(OC(C)=O)c(OC(C)=O)c3oc2=O)cc1 | > 100 µM | 6.14 µM | > 30 µM | > 100 µM | > 30 µM | – |
| CC(=O)Oc1ccc(-c2cc3cccc(OC(C)=O)c3oc2=O)cc1OC(C)=O | > 100 µM | 22 µM | > 30 µM | 64.4 µM | > 30 µM | – |
| O=c1oc2c(O)c(O)ccc2cc1-c1ccccc1 | 2.4 µM | 3.85 µM | > 30 µM | 12.1 µM | > 30 µM | – |
| COc1ccc(-c2cc3cccc(C)c3oc2=O)cc1OC | > 100 µM | 13.6 µM | > 30 µM | 25.9 µM | > 30 µM | – |
| COc1cc(-c2cc3cccc(C)c3oc2=O)cc(OC)c1OC | > 60 µM | 9.82 µM | > 30 µM | 32.9 µM | > 30 µM | – |
| O=c1oc2c(O)cccc2cc1-c1ccc(O)c(O)c1 | 6.2 µM | 23.6 µM | > 30 µM | 14 µM | > 30 µM | – |
